Test results: patent US20250388582A1, “NOVEL BICYCLIC HETEROARYL COMPOUND AND USE THEREOF” (ILDONG PHARMACEUTICAL CO., LTD., priority 2022, published 2025)

What was measured:
human GST-PIKFYVE = molecular target: T1, human GST-PIKFYVE (Homo sapiens, UniProt Q9Y2I7); test: ADP-Glo kinase assay, enzyme inhibition activity against human PIKFYVE (Carna biosciences); assay type: biochemical; conditions: inhibitory activity at final compound concentration 10 nM; 1 hour at room temperature
T1 construct: GST; purchased Carna biosciences 11-118
T1 sequence (Q9Y2I7 whole entry): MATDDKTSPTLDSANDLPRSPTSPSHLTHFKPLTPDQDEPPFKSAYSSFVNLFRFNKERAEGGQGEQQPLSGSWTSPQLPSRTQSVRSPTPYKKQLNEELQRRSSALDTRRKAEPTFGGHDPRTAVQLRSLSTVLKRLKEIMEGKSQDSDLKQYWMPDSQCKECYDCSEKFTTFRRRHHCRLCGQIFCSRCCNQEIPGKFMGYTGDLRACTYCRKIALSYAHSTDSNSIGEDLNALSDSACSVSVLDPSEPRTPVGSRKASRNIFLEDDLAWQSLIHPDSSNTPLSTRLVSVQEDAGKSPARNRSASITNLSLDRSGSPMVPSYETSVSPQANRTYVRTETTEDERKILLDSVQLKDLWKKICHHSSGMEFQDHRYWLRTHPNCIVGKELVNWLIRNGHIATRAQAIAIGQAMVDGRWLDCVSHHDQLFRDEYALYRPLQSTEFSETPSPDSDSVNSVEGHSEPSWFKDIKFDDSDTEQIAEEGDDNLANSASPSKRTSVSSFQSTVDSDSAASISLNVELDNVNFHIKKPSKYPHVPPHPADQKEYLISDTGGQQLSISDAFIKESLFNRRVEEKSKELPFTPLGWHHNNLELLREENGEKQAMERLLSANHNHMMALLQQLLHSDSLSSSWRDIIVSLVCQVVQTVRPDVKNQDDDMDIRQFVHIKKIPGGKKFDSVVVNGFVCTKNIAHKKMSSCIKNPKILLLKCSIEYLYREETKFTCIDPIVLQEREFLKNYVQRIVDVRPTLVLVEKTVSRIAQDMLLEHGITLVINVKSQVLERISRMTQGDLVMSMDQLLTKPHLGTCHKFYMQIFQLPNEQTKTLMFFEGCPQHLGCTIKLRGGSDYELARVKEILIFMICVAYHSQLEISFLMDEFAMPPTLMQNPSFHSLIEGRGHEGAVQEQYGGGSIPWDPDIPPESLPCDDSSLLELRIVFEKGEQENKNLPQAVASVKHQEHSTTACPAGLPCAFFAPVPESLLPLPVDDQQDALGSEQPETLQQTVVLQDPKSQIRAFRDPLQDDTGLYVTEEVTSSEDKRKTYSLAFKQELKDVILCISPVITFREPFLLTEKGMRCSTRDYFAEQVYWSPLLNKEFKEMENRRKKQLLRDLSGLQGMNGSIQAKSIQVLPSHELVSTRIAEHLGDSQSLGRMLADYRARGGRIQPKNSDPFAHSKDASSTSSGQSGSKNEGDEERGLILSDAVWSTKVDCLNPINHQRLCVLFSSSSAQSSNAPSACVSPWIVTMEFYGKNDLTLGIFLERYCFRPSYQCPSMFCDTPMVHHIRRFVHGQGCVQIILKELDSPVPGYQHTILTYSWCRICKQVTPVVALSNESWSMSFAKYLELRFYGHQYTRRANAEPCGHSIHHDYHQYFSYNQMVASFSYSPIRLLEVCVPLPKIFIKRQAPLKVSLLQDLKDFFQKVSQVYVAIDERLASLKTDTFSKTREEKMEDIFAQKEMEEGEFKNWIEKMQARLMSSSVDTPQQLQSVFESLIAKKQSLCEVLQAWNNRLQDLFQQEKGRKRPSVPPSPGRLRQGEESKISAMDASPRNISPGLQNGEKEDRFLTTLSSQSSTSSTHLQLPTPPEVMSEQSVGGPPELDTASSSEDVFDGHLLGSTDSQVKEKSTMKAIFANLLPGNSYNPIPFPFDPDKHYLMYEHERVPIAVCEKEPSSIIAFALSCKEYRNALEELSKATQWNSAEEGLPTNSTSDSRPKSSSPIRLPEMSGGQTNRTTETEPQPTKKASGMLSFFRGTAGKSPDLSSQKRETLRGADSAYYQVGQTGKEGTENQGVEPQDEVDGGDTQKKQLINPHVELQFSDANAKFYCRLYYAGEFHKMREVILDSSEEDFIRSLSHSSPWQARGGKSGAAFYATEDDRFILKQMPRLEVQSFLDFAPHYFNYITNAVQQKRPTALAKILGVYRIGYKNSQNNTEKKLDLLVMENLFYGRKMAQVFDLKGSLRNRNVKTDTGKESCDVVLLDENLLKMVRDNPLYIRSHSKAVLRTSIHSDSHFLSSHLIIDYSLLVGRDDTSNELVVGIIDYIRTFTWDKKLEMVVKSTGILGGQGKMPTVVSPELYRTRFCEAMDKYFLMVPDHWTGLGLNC
Method: The enzyme inhibition activity values for the compounds according to Examples against human PIKFYVE were calculated using the ADP-Glo™ kinase assay service of Carna biosciences, Inc. The enzyme activity evaluation method provided by Carna biosciences Inc., is shown below.
Enzyme inhibition activity was evaluated by reacting the compounds according to Examples with human GST-PIKFYVE (11-118, Carna biosciences), which was purified using glutathione Sepharose chromatography. The reaction buffer used was composed of 50 mmol/L MOPS, 1 mmol/L DTT, and pH 7.2, and all reactions of the test distilled water were performed in the buffer.
Compounds were prepared as solutions in 100% DMSO as 100× stocks and adjusted to have a final sample concentration of 10 nM.
The substrate-enzyme reaction for PIKFYVE was performed by mixing 5 μL human GST-PIKFYVE, 5 μL compounds according to Examples, 5 μL enzyme substrate, and 5 μL purified ATP and reacting for 1 hour at room temperature. After the substrate-enzyme reaction, 20 μL ADP-Glo™ Reagent was added and reacted at room temperature for 40 minutes, then 40 μL Kinase Detection Reagent was added and reacted at room temperature for 40 minutes.
After completion of the reaction, the degree of enzyme activity inhibition was measured by luminescence. The fluorescence of the enzyme activity in the solvent control group […] was set to 100%, and the fluorescence of the enzyme activity in the solvent control group without compound treatment was set to 0%. The inhibitory activity of each compound according to Examples was calculated based on these values.

PIKFYVE = molecular target: T2, PIKFYVE (Homo sapiens, UniProt Q9Y2I7); test: NanoBRET TE Intracellular Kinase Assay, interaction of PIKFYVE and compounds in HEK293 cells; assay type: cell-based; conditions: IC50 class from BRET; HEK293 cells expressing PIKFYVE-NanoLuc; 2 hours incubation
T2 construct: host or cells: HEK293 (ATCC, CRL-1573)
T2 sequence (Q9Y2I7 whole entry): as above
Method: To predict the efficacy of the compounds according to Example on PIKFYVE in humans, the interaction between PIKFYVE and the compounds was tested using the HEK293 cell line derived from human embryonic kidney (ATCC, CRL-1573) via NanoBRETT TE Intracellular Kinase Assay Service of Carna biosciences Inc., (Japan). The evaluation method provided by Carna biosciences Inc., was shown below and the NanoBRET™ TE Intracellular Kinase Assay, K-8 Kit (Promega, CS1810C88) was used.
The HEK-293 cells cultured in Opti-MEM™ I Reduced Serum Medium (Thermo Fisher, 11058-021) were transfected with Transfection Carrier DNA (Promega, E4881), PIKFYVE-NanoLuc Fusion Vector (Promega, CS1810C225), and FuGENE HD Transfection Reagent (Promega, E2311) to produce cells expressing genes combining PIKFYVE and NanoLuc, followed by culturing 100 μl (2×10^5 cells/ml) each in 96-well plates (Corning, 3917).
10× compounds according to Examples or Comparative Examples prepared by concentration in 1× NanoBRET™ tracer reagent and DMSO were reacted in 96-well plates and incubated for 2 hours in a 37° C., 5% CO2 incubator.
After the reaction was completed, 3× Complete NanoBRET™ Nano-Glo Substrate solution was added to each well, and the reaction was allowed to run for 2-3 minutes at room temperature before BRET was measured using a GloMax Discover Multimode Microplate Reader (Promega).

| ADP-Glo kinase assay (%, 10 nM) (human GST-PIKFYVE) [%] | IC50 (PIKFYVE) [nM] | SMILES |
| --- | --- | --- |
| 78.53 | 10 to 20 | Cc1cccc(/C=N/Nc2nc(N3CCOCC3)nc3c2ncn3Cc2ccccn2)c1 [Example 20, (E)-4-(6-(2-(3-methylbenzylidene)hydrazinyl)-9-(pyridin-2-ylmethyl)-9H-purin-2-yl)morpholine] |
| 60.95 | 20 to 30 | Cc1cccc(/C=N/Nc2nc(N3CCOCC3)nc3c2ncn3CC2CC2)c1 [Example 21, (E)-4-(9-(cyclopropylmethyl)-6-(2-(3-methylbenzylidene)hydrazinyl)-9H-purin-2-yl)morpholine] |
| 66.19 | 10 to 20 | Cc1cccc(/C=N/Nc2nc(N3CCOCC3)nc3c2ncn3CC(=O)c2ccccc2)c1 [Example 22, (E)-2-(6-(2-(3-methylbenzylidene)hydrazinyl)-2-morpholino-9H-purin-9-yl)-1-phenylethan-1-one] |
| 72.46 | 10 to 20 | Cc1cccc(/C=N/Nc2nc(N3CCOCC3)nc3c2ncn3CC(=O)c2ccc(Cl)cc2)c1 [Example 25, (E)-1-(4-chlorophenyl)-2-(6-(2-(3-methylbenzylidene)hydrazinyl)-2-morpholino-9H-purin-9-yl)ethan-1-one] |
| 80.87 | 10 to 20 | Cc1cccc(/C=N/Nc2nc(N3CCOCC3)nc3c2ncn3CC(F)(F)c2ccccn2)c1 [Example 26, (E)-4-(9-(2,2-difluoro-2-(pyridin-2-yl)ethyl)-6-(2-(3-methylbenzylidene)hydrazinyl)-9H-purin-2-yl)morpholine] |
| 65.48 | 20 to 30 | Cc1cccc(/C=N/Nc2nc(N3CCOCC3)nc3c2ncn3CC(=O)c2cccnc2)c1 [Example 28, (E)-2-(6-(2-(3-methylbenzylidene)hydrazinyl)-2-morpholino-9H-purin-9-yl)-1-(pyridin-3-yl)ethan-1-one] |
| 76.90 | 10 to 20 | Cc1cccc(/C=N/Nc2nc(N3CCOCC3)nc3c2ncn3CC(=O)c2cccn2C)c1 [Example 30, (E)-1-(1-methyl-1H-pyrrol-2-yl)-2-(6-(2-(3-methylbenzylidene)hydrazinyl)-2-morpholino-9H-purin-9-yl)ethan-1-one] |
| 59.60 | 20 to 30 | Cc1cccc(/C=N/Nc2nc(N3CCOCC3)nc3c2ncn3CC(=O)c2ccncc2)c1 [Example 32, (E)-2-(6-(2-(3-methylbenzylidene)hydrazinyl)-2-morpholino-9H-purin-9-yl)-1-(pyridin-4-yl)ethan-1-one] |
| 70.11 | 10 to 20 | Cc1cccc(/C=N/Nc2nc(N3CCOCC3)nc3c2ncn3CC(=O)c2ccc(C#N)cc2)c1 [Example 35, (E)-4-(2-(6-(2-(3-methylbenzylidene)hydrazinyl)-2-morpholino-9H-purin-9-yl)acetyl)benzonitrile] |
| 76.04 | 10 to 20 | Cc1cccc(/C=N/Nc2nc(N3CCOCC3)nc3c2ncn3CC(=O)c2cccc(C#N)c2)c1 [Example 36, (E)-3-(2-(6-(2-(3-methylbenzylidene)hydrazinyl)-2-morpholino-9H-purin-9-yl)acetyl)benzonitrile] |
| 89.07 | ≤ 10 | COc1ccccc1C(=O)Cn1cnc2c(N/N=C/c3cccc(C)c3)nc(N3CCOCC3)nc21 [Example 37, (E)-1-(2-methoxyphenyl)-2-(6-(2-(3-methylbenzylidene)hydrazinyl)-2-morpholino-9H-purin-9-yl)ethan-1-one] |
| 86.29 | ≤ 10 | Cc1cccc(/C=N/Nc2nc(N3CCOCC3)nc3c2ncn3CC(=O)c2ccccc2C)c1 [Example 40, (E)-2-(6-(2-(3-methylbenzylidene)hydrazinyl)-2-morpholino-9H-purin-9-yl)-1-(o-tolyl)ethan-1-one] |
| 76.69 | ≤ 10 | Cc1cccc(/C=N/Nc2nc(N3CCOCC3)nc3c2ncn3CC(=O)c2cccc(C)c2)c1 [Example 41, (E)-2-(6-(2-(3-methylbenzylidene)hydrazinyl)-2-morpholino-9H-purin-9-yl)-1-(m-tolyl)ethan-1-one] |
| 62.80 | 20 to 30 | Cc1cccc(/C=N/Nc2nc(N3CCOCC3)nc3c2ncn3CC(=O)c2cccc(C(F)(F)F)c2)c1 [Example 44, (E)-2-(6-(2-(3-methylbenzylidene)hydrazinyl)-2-morpholino-9H-purin-9-yl)-1-(3-(trifluoromethyl)phenyl)ethan-1-one] |
| 67.70 | 20 to 30 | Cc1cccc(/C=N/Nc2nc(N3CCOCC3)nc3c2ncn3CC(=O)c2ccc(C(F)(F)F)cc2)c1 [Example 45, (E)-2-(6-(2-(3-methylbenzylidene)hydrazinyl)-2-morpholino-9H-purin-9-yl)-1-(4-(trifluoromethyl)phenyl)ethan-1-one] |
| 73.96 | 10 to 20 | Cc1cccc(/C=N/Nc2nc(N3CCOCC3)nc3c2ncn3CC(=O)c2cccc(F)c2)c1 [Example 46, (E)-1-(3-fluorophenyl)-2-(6-(2-(3-methylbenzylidene)hydrazinyl)-2-morpholino-9H-purin-9-yl)ethan-1-one] |
| 78.87 | ≤ 10 | Cc1cccc(/C=N/Nc2nc(N3CCOCC3)nc3c2ncn3CC(=O)c2cccc(Cl)c2)c1 [Example 49, (E)-1-(3-chlorophenyl)-2-(6-(2-(3-methylbenzylidene)hydrazinyl)-2-morpholino-9H-purin-9-yl)ethan-1-one] |
| 67.10 | 20 to 30 | Cc1cccc(/C=N/Nc2nc(N3CCOCC3)nc3c2ncn3CC(=O)c2cc(C(F)(F)F)ccn2)c1 [Example 52, (E)-2-(6-(2-(3-methylbenzylidene)hydrazinyl)-2-morpholino-9H-purin-9-yl)-1-(4-(trifluoromethyl)pyridin-2-yl)ethan-1-one] |
| 70.90 | 20 to 30 | Cc1cccc(/C=N/Nc2nc(N3CCOCC3)nc3c2ncn3CC(=O)c2ccc(F)cn2)c1 [Example 53, (E)-1-(5-fluoropyridin-2-yl)-2-(6-(2-(3-methylbenzylidene)hydrazinyl)-2-morpholino-9H-purin-9-yl)ethan-1-one] |
| 80.98 | 10 to 20 | Cc1cccc(/C=N/Nc2nc(N3CCOCC3)nc3c2ncn3CCc2ccccn2)c1 [Example 73, (E)-4-(6-(2-(3-methylbenzylidene)hydrazinyl)-9-(2-(pyridin-2-yl)ethyl)-9H-purin-2-yl)morpholine] |
| 69.71 | 20 to 30 | Cc1cccc(/C=N/Nc2nc(N3CCOCC3)nc3c2ncn3CC2(C)COC2)c1 [Example 74, (E)-4-(6-(2-(3-methylbenzylidene)hydrazinyl)-9-((3-methyloxetan-3-yl)methyl)-9H-purin-2-yl)morpholine] |
| 83.61 | ≤ 10 | Cc1cccc(/C=N/Nc2nc(N3CCOCC3)nc3c2ncn3CCc2cccnc2)c1 [Example 80, (E)-4-(6-(2-(3-methylbenzylidene)hydrazinyl)-9-(2-(pyridin-3-yl)ethyl)-9H-purin-2-yl)morpholine] |
| 63.65 | 10 to 20 | Cc1cccc(/C=N/Nc2nc(N3CCOCC3)nc3c2ncn3C2CCN(C(=O)c3cccnc3)CC2)c1 [Example 87, (E)-(4-(6-(2-(3-methylbenzylidene)hydrazinyl)-2-morpholino-9H-purin-9-yl)piperidin-1-yl)(pyridin-3-yl)methanone] |
| 64.66 | 20 to 30 | Cc1cccc(/C=N/Nc2nc(N3CCOCC3)nc3c2ncn3C2CCN(C(=O)N3CCOCC3)CC2)c1 [Example 88, (E)-(4-(6-(2-(3-methylbenzylidene)hydrazinyl)-2-morpholino-9H-purin-9-yl)piperidin-1-yl)(morpholino)methanone] |
